# Results as given in EP0655460B1, “Pharmacotherapeutical use of glutathione derivatives” (Ohlenschläger, Gerhard, Dr. med., priority 1987, dated 1989).
# Like-named read-outs stand apart in the source and are kept apart here.
# Key:
# [1] = Toxicity of the therapeutic dosage in small animals; format: in vivo; conditions: small animals such as Graumäusen, Wistar-Ratten und Kaninchen; therapeutic dosage (2 - 5 mg/kg for man)
# Method: Die therapeutische Dosierung, die sich im Tierversuch an Kleintieren wie Graumäusen, Wistar-Ratten und Kaninchen als untoxisch erwiesen hat, liegt für den Menschen in einem Bereich von 2 - 5 mg/kg Körpergewicht für eine Einzeldosis bei langsamer intravenöser Injektion, wobei das Injektionsvolumen 5 ml beträgt mit einem Gehalt an reduziertem Glutathion von 150 mg.
# Redoxstatus des Blutes [2] = conditions: human venous blood, 600 mg langsam intravenös, 10 Minuten after application, after load, n = 50, mean ± SD
# Method: 2.2) Selbstversuch am Menschen zur Verbesserung und/oder zur Normalisierung des Redorstatus des Blutes:
# Im menschlichen Venenblut wurden nach definierter Sauerstoff-Mangel-Belastung die gleichen Parameter bestimmt wie im vorstehend gegchilderten Versuch. Insgesamt wurden 50 Versuche an verschiedenen Tagen durchgeführt.
# Danach wurde-reduziertes Glutathion in einer Dosis von 600 mg langsam intravenös verabreicht.
# Randbedingungen: Temperatur 20°C, Luftdruck 758 - 770 mm Hg.
# [3] = tested on: malignen Melanoms vom Menschen; conditions: 4 mice, 10^6 melanoma cells, 250 mg three times weekly
# From the text: 2.3) Versuch an 8 gesunden Graumäusen nach Transplantation eines malignen Melanoms vom Menschen.
# In Fig. 1 ist das Wachstum des Tumors in Abhängigkeit von der Zeit dargestellt.
# [4] = cited from earlier work
# [5] = tested on: Glukose-6-Phosphat-Dehydrogenase; conditions: same conditions as 1.1 (0,5 mg, 37°C, 30 Minuten); n = 22, mean ± SD; Leerwert 148 ± 22
# Method: (§1) Von 20 Patienten mit unterschiedlichen Erkrankungen wurden jeweils 10 ml menschlichen Venenblutes entnommen und dessen Gerinnungsfähigkeit durch Zusatz von Heparin aufgehoben. Als Parameter für die optimale Erythrozytenfunktion wurde vor und nach der Inkubation mit 0,5 mg reduziertem Glutathion bei 37°C während eines Zeitraumes von 30 Minuten der Gehalt an intraerythrozytärem reduziertem Glutathion bestimmt.
# (§2) 1.2) In-vitro-Versuch an Zellensystemen menschlicher Erythrozyten:
# (§3) Unter denselben Bedingungen wie bei vorstehend beschriebenem Versuch wurden die Enzyme Glukose-6-Phosphat-Dehydrogenase und Glutathion-Reduktase aus Erythrozyten von 22 Patienten in vitro untersucht.
# Glutathion-Reduktase = Glutathion-Reduktase (Homo sapiens, UniProt P00390); conditions: same conditions as 1.1 (0,5 mg, 37°C, 30 Minuten); n = 22, mean ± SD; Leerwert 9,5 ± 0,8
# Method: as §1, §2, §3
# [6] = cited from earlier work; remark: listed apart in the source
# [7] = tested on: malignen Melanoms vom Menschen; conditions: 300 mg three times weekly
# Method: 2.4) Versuch an 40 gesunden Graumäusen nach Transplantation eines malignen Melanoms vom Menschen.
# 40 gesunden Graumäusen wurden je 10^6 maligne Melanomzellen überimpft.
# 30 Tiere wurden vom Beginn der Versuchsreihe an drei mal wöchentlich mit je 300 mg reduziertem Glutathion behandelt.
# Redoxstatus des Blutes [8] = conditions: Kaninchen, Ohrvenenblut, 10 mg/kg intravenös, 5 - 10 Minuten after application, after load, n = 30, mean ± SD
# Method: Bei 5 verschiedenen Kaninchen wurden in 30 Versuchen im venösen Blut folgende Parameter nach der Methode und mit dem gerät VINCENT gemessen: • Ohm'scher Widerstand: r • Redoxpotential EH bzw. Elektronenpotential: rH2 • pH-Wert: pH.
# Die Werte wurden im Ohrvenenblut nach definierter Sauerstoffmangel-Belastung gemessen.
# Danach wurde den Tieren reduziertes Glutathion in einer Dosis von 10 mg/kg Körpergewicht intravenös verabreicht.
# 5 - 10 Minuten nach der Applikation von reduziertem Glutathion wurden folgende Werte ermittelt:
# Randbedingungen: Temperatur 20°C, Luftdruck 767 mm Hg.
# [9] = cited from earlier work; remark: listed apart in the source
# [10] = 30 treated mice, 10^6 melanoma cells
# Sequence of Glutathion-Reduktase (P00390 44-522): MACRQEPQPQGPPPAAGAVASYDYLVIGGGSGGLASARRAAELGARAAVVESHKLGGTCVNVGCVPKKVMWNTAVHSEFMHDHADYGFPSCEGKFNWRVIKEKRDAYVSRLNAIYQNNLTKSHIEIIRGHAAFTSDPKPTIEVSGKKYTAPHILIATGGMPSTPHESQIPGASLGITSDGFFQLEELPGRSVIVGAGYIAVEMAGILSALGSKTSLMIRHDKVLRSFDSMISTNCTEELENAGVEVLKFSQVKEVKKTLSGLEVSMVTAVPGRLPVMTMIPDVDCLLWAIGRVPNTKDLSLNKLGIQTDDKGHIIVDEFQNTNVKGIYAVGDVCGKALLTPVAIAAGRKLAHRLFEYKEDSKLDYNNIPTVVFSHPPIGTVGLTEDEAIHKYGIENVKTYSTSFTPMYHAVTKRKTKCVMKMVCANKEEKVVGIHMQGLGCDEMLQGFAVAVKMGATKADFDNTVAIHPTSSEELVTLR
compound,measurement,setting,value
"N[C@@H](CCC(=O)N[C@@H](CS)C(=O)NCC(=O)O)C(=O)O [reduziertes Glutathion, gamma-Glutamyl-cysteinyl-glycin]",Toxizität der therapeutischen Dosierung im Tierversuch,[1],untoxisch
same,pH-Wert,"Redoxstatus des Blutes [2]; without: 7,41 ± 0,18","pH = 7,23 ± 0,11"
same,Ohm'scher Widerstand r,"Redoxstatus des Blutes [2]; without: 197 ± 14,5","r = 204 ± 12,3 Ohm/cm^3"
same,Überleben,[3]; controls died within 8 - 14 Tagen,überlebten bis zur siebten Woche
same,Tumorwachstum,[3]; versus untreated controls,deutlich langsameres Tumorwachstum
same,biologische Halbwertszeit in der Augenlinse,[4]; human tissue: Augenlinse,ca. 30 Std.
same,biologische Halbwertszeit im Erythrozyten,[4]; human tissue: Erythrozyten,ca. 100 Std.
same,biologische Halbwertszeit im Gehirn,[4]; human tissue: Gehirn,ca. 70 Std.
same,biologische Halbwertszeit in der Leber,[4]; human tissue: Leber,ca. 4 Std.
same,"Glukose-6-Phosphat-Dehydrogenase, Werte nach Inkubation",[5],179 ± 16 mU/ 10^9 Erys.
same,"Glutathion-Reduktase, Werte nach Inkubation",Glutathion-Reduktase,"11,3 ± 1,2 U/ 10^11 Erys."
same,Löslichkeit in Wasser,[6]; Wasser,leicht löslich
same,Löslichkeit in physiologischer Kochsalzlösung,[6]; physiologischer Kochsalzlösung,leicht löslich
same,Löslichkeit in Äthanol,[6]; Äthanol,löslich
same,weitere gestorbene Tiere innerhalb 20 Tagen,[7]; [10],fünf
same,weitere gestorbene Tiere innerhalb 30 Tagen,[7]; [10],sieben
same,gestorbene Tiere innerhalb 15 Tagen,"[7]; 30 treated mice, 10^6 melanoma cells, controls died within 8 - 12 Tagen",drei
same,"Anteil überlebender behandelter Tiere, 30 Tage Beobachtungszeitraum",[7]; of 30 treated mice,50%
same,"überlebende Tiere, 30 Tage Beobachtungszeitraum",[7]; of 30 treated mice,15 Tiere
same,pH-Wert,"Redoxstatus des Blutes [8]; without: 7,38 ± 0,21","pH = 7,15 ± 0,16"
same,Ohm'scher Widerstand r,Redoxstatus des Blutes [8]; without: 199 ± 12,r = 202 ± 14 Ohm/cm^3
same,pK-Wert COOH(1),[9]; COOH(1),"3,53"
same,pK-Wert COOH(2),[9]; COOH(2),"2,12"
same,pK-Wert NH3 ^+,[9]; NH3 ^+,"8,66"
same,pK-Wert SH,[9]; SH,"9,66"
